Measured values reported in patent US5631244A, “mono(6-amino-6-deoxy)cyclodextrin derivatives substituted in the 6-position by an α-amino acid residue, process for their preparation and their uses” (L'Oreal, priority 1993, dated 1997).
Converted amounts (≈) assume the structure as drawn.

assay: Solubility in water of the cyclodextrin derivatives; format: physicochemical

**Q.** For NC(CCC(=O)NC[C@H]1O[C@@H]2O[C@H]3[C@H](O)[C@@H](O)[C@@H](O[C@H]4[C@H](O)[C@@H](O)[C@@H](O[C@H]5[C@H](O)[C@@H](O)[C@@H](O[C@H]6[C@H](O)[C@@H](O)[C@@H](O[C@H]7[C@H](O)[C@@H](O)[C@@H](O[C@H]8[C@H](O)[C@@H](O)[C@@H](O[C@H]1[C@H](O)[C@H]2O)O[C@@H]8CO)O[C@@H]7CO)O[C@@H]6CO)O[C@@H]5CO)O[C@@H]4CO)O[C@@H]3CO)C(=O)O (stereo partly drawn) [Example 1(b), mono[N-(4-amino-4-carboxybutyryl)amino]-6-deoxy-β-cyclodextrin], which solubility is on record?
**A.** > 1000 mg/mL

**Q.** For NC(CC(=O)NC[C@H]1O[C@@H]2O[C@H]3[C@H](O)[C@@H](O)[C@@H](O[C@H]4[C@H](O)[C@@H](O)[C@@H](O[C@H]5[C@H](O)[C@@H](O)[C@@H](O[C@H]6[C@H](O)[C@@H](O)[C@@H](O[C@H]7[C@H](O)[C@@H](O)[C@@H](O[C@H]8[C@H](O)[C@@H](O)[C@@H](O[C@H]1[C@H](O)[C@H]2O)O[C@@H]8CO)O[C@@H]7CO)O[C@@H]6CO)O[C@@H]5CO)O[C@@H]4CO)O[C@@H]3CO)C(=O)O (stereo partly drawn) [Example 2(b), mono[N-(3-amino 3-carboxypropionyl)amino]-6-deoxy-β-cyclodextrin], which solubility is on record?
**A.** > 1000 mg/mL

**Q.** For NC(Cc1ccc(OCC(=O)NC[C@H]2O[C@@H]3O[C@H]4[C@H](O)[C@@H](O)[C@@H](O[C@H]5[C@H](O)[C@@H](O)[C@@H](O[C@H]6[C@H](O)[C@@H](O)[C@@H](O[C@H]7[C@H](O)[C@@H](O)[C@@H](O[C@H]8[C@H](O)[C@@H](O)[C@@H](O[C@H]9[C@H](O)[C@@H](O)[C@@H](O[C@H]2[C@H](O)[C@H]3O)O[C@@H]9CO)O[C@@H]8CO)O[C@@H]7CO)O[C@@H]6CO)O[C@@H]5CO)O[C@@H]4CO)cc1)C(=O)O (stereo partly drawn) [Example 3, mono [N-4-(2'-amino 2'-carboxy ethyl) 1-(phenyloxymethylcarbonyl)amino]6-deoxy β-cyclodextrin], which solubility is on record?
**A.** 900 mg/mL (≈ 664 mM)
